Results on one compound are retold here after patent publication US20250064877A1, “COMPOSITION FOR INCREASING MUSCLE STRENGTH CONTAINING COMPLEX EXTRACT OF ANGELICA KEISKEI AND LEAVES OF MORUS ALBA L” (HAMSOA PHARMACEUTICAL CO., LTD., priority 2022, published 2025).

This assay deals with MuRF1. Kind of assay: Expression of MuRF1 in dexamethasone-induced muscle atrophy rats. The conditions noted are these: versus increase induced by dexamethasone; MIX 100 mg/kg, PC 320 mg/kg oral; FIG. 7. Type of assay: in vivo, SD rats. The text has this:
In the process of treating muscle atrophy, the effects of the composite (extracts) of leaves of mulberry and Angelica keiskei on the expression of MyoD (a factor involved in muscle production) and on the expression of MuRF1 (a factor related to muscle atrophy) were confirmed.

With `CC(C)(O)CC(=O)O` [PC, 3-hydroxy-3-methylbutyric acid], the “expression of MuRF1” value is “tended to decrease”.
